Source: patent US9775920B2, “Use of N-(4-isopropylphenyl)-5-amino-isoindoline” (Institute of Nuclear Energy Research, Atomic Energy …, priority 2015, dated 2017)
“Also recorded” adds a separate entry of the source.

Assays:
[1] = test system: β-amyloid; conditions: stated as known; cited from earlier work
[2] = target: Aβ40 (Homo sapiens, UniProt P05067); assay: Competition with fluorescent dye ThT for binding to Aβ40 (in-vitro assay); conditions: FIG. 1
Description: Competition for fluorescent binding to Aβ40: the inhibition test of competition binding to amyloid was carried out, in which 2 μM Aβ40, 1 μM amyloid fluorescent dye ThT, and 0.47 nM, 0.94 nM, 4.7 nM, 9.4 nM, 47 nM, 94 nM, 470 nM, 940 nM, 4700 nM and 9400 nM of standard compounds (PiB and BTA-1) and the compound of the present invention as the competing compounds were used. The reaction was carried out for 2 hrs at room temperature, which was excited by using Anthos Zenyth 3100 at an excitation wavelength of 485 nm, and then emitted a florescence of 535 nm. The binding rate of ThT to amyloid was set to 1 where no compound of the present invention was added to compete with ThT for binding. The PiB and BTA-1 were used as positive controls, and the binding rate of each concentration of compound was calculated according to the formula: binding rate=(fluorescence intensity with the compound of the present invention/fluorescence intensity without the compound of the present invention). The result is shown in FIG. 1, in which the horizontal axis is the concentration of the competing compound, and the longitudinal axis is the binding rate of ThT.

Sequence of Aβ40 (P05067 672-711 limits assumed): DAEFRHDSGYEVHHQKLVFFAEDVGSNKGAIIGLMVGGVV

## [11CH3]Nc1ccc(-c2nc3ccc(O)cc3s2)cc1 [PiB]
[1]
  affinity to β-amyloid: high affinity

## CNc1ccc(-c2nc3ccccc3s2)cc1 [BTA-1]
[1]
  affinity to β-amyloid: high affinity

## CC(C)c1ccc(N2Cc3ccc(N)cc3C2)cc1 [the compound of the present invention, N-(4-isopropylphenyl)-5-amino-isoindoline]
[2]; 2 μM Aβ40, 1 μM ThT, 0.47 nM to 9400 nM competing compound, 2 hrs at room temperature, excitation 485 nm, emission 535 nm
  binding rate of ThT to amyloid in competition with the compound: can compete with the β-amyloid dye thioflavin T (ThT) for binding to amyloid; also recorded: decrease gradually with the increasing concentration of the compound of the present invention
[2]; at a low concentration of competing compound
  ThT binding rate compared with PiB and BTA-1: comparable to that of other known compounds at a low concentration
